Measurements as given in paper PMC5073322, “Novel Natural Product-like Caged Xanthones Bearing a Carbamate Moiety Exhibit Antitumor Potency and Anti-Angiogenesis Activity In vivo” (Scientific Reports, 2016).
Converted amounts (≈) assume the structure as drawn. Like-named read-outs stand apart in the source and are kept apart here.

How the values were obtained:
A549/cisplatin = assay: MTT antiproliferative assay, cisplatin-resistant A549; type: cell-based
Procedure: (§2) The inhibition of tumour cell growth was measured by a modified tetrazolium (MTT) salt assay, as previously described[39]. Cells were cultured in a 96-well plate and treated with culture medium alone or different concentrations of the compounds. The cells were incubated for 72 h, and then, the MTT assay reagent was added. After a 4 h incubation, the formazan product was quantitated at 570 nm. The IC50 values (the concentrations that gave rise to 50% inhibition of cell viability) were calculated using GraphPad Prism 6 using a variable slope (four parameters).

HepG2 = assay: MTT antiproliferative assay, HepG2
Procedure: as §2

HCT116 = assay: MTT antiproliferative assay, HCT116
Procedure: as §2

MDA-MB-231 = assay: MTT antiproliferative assay, MDA-MB-231
Procedure: as §2

A549/taxol = assay: MTT antiproliferative assay, Taxol-resistant A549; type: cell-based; conditions: for IC50: 72 h, Taxol-resistant A549
Procedure: as §2

A549 = assay: MTT antiproliferative assay, A549
Procedure: as §2

Water solubility by HPLC = type: physicochemical; conditions: for solubility: thermodynamic from solid
Description: The physicochemical characteristics of compounds directly determine their potential drug-like properties. Assessing a compound’s physicochemical properties before performing in vivo evaluations can guide further studies and minimize the time and cost associated with drug discovery. Therefore, parallel to the in vivo study, these solubilities of these compounds in water were experimentally measured using high-performance liquid chromatography (HPLC). Based on the results of full wave scanning, 290 nm was chosen as the maximum absorption wavelength for HPLC detection.
(§1) A HPLC system with an ultraviolet (UV) detector was used to detect the solubility of the compounds. The optimal wavelength was 290 nm. Ethanol/water (85:15) was an efficient eluent at a flow rate of 0.5 mL/min. The compounds were stirred in deionized water overnight to maximize the retention of the compounds in solution. Then, the solutions were filtered and the supernatant was used as a fluid sample for HPLC detection. The permeability (Pe) of some of the compounds was tested with the help of a standard PAMPA (pION), as previously reported. PAMPA was performed on a PAMPA Explorer instrument (pION, Inc., Woburn, MA) with the PAMPA Explorer command software (Version 3.7.4.1). The compounds were diluted to 10 mM with the system solution buffer (pH 7.4). Then, 150 μL of the diluted compound solution was transferred to a UV plate, and the UV spectrum was collected and used as a reference. Then, paint the membrane with 5 μL of gastrointestinal tract (GIT) lipid. The acceptor chamber was filled with 200 μL of acceptor solution buffer, and the donor chamber was filled with 200 μL of diluted compound solution. The PAMPA sandwich was assembled and left at 25 °C for 4 h. The UV spectra (240–500 nm) from the donor and the acceptor were collected. The permeability coefficient was calculated with the PAMPA Explorer Command software (Version 3.7.4.1) based on the area under the curve (AUC) of the reference plate, the donor plate, and the acceptor plate. The permeability coefficient of the compound was tested for four times, and the data are shown as the average values. Ketoprofen (4.5×10^−6 cm/s) and propranolol (112.8×10^−6 cm/s) were used as the standards in this assay.

[1] = Parallel artificial membrane permeability assay (PAMPA); type: in vitro ADME; conditions: for permeability relative to DDO-6101 and GA: PAMPA, different pH values (Fig. 5); for permeability coefficient (Pe): PAMPA standards, 25 °C, 4 h
Procedure: Permeability is another important property that reflects the ability of molecules to diffuse through cell membranes. The permeability coefficients were determined using a standard parallel artificial membrane permeability assay (PAMPA) on a PAMPA Explorer instrument (Pion, Inc., MA, USA)[34].
as §1, with “The compounds were diluted to 10 mM with the system solution buffer (pH 7.4).” left out

[2] = Homo sapiens, MTT, 72 h, read-out: IC50 A549/cisplatin
[3] = Homo sapiens, HepG2, 72 h, read-out: IC50 HepG2
[4] = Homo sapiens, HCT-116, 72 h, read-out: IC50 HCT116
[5] = Homo sapiens, MDA-MB-231, 72 h, read-out: IC50 MDA-MB-231
[6] = Homo sapiens, A549, 72 h, read-out: IC50 A549
[7] = deionized water, stirred overnight, HPLC 290 nm, read-out: S, water solubility
[8] = read-out: IC50 A549/cisplatin, MTT, 72 h
[9] = read-out: IC50 HepG2, MTT, 72 h
[10] = Homo sapiens, HCT-116, 72 h, read-out: IC50 HCT116, MTT, 72 h
[11] = Homo sapiens, MDA-MB-231, 72 h, read-out: IC50 MDA-MB-231, MTT, 72 h
[12] = Homo sapiens, A549, 72 h, read-out: IC50 A549, MTT, 72 h
[13] = deionized water, stirred overnight, HPLC 290 nm
[14] = Homo sapiens, A549, 72 h, read-out: IC50 A549/cisplatin, MTT, 72 h
[15] = Homo sapiens, HepG2, 72 h, read-out: IC50 HepG2, MTT, 72 h
[16] = A549/Taxol, read-out: IC50 A549/taxol, MTT, 72 h
[17] = water, deionized water, stirred overnight, HPLC 290 nm, read-out: S, water solubility
[18] = read-out: IC50 HCT116, MTT, 72 h

| Structure (SMILES) | IC50 (A549/cisplatin; [2]) [nM] | IC50 (HepG2; [3]) [nM] | IC50 (HCT116; [4]) [nM] | IC50 (MDA-MB-231; [5]) [nM] | IC50 (A549/taxol; MTT, read-out: IC50 A549/taxol) [nM] | IC50 (A549; [6]) [nM] | solubility (Water solubility by HPLC; [7]) [µM] | further results |
| --- | --- | --- | --- | --- | --- | --- | --- | --- |
| CC(C)=CCC12OC(C)(C)C3CC(C=C4C(=O)c5c(OC(=O)N6CCCCC6)cccc5OC431)C2=O (stereo not drawn) [Compound 8f] | 2980 ± 170 | 950 ± 90 | 1020 ± 70 | 870 ± 160 | 1450 ± 180 | 2930 ± 20 | 50 (≈ 24.6 µg/mL) |  |
| CC(C)=CCC[C@]1(C)C=Cc2c(O)c3c(c(CC=C(C)C)c2O1)O[C@]12C(=C[C@@H]4C[C@H]1C(C)(C)O[C@@]2(C/C=C(/C)C(=O)O)C4=O)C3=O [GA, gambogic acid, reference compound] | 2500 ± 60 | 2080 ± 70 | 340 ± 80 | 1500 ± 50 | 290 ± 40 | 2020 ± 20 |  | solubility (Water solubility by HPLC; water): < 5 µM |
| CCN(CC)C(=O)Oc1cccc2c1C(=O)C1=CC3CC4C(C)(C)OC(CC=C(C)C)(C3=O)C14O2 (stereo not drawn) [Compound 8b] | 1460 ± 90 | 1880 ± 140 | 2870 ± 70 | 470 ± 70 | 680 ± 80 | 2860 ± 20 | 30 (≈ 14.4 µg/mL) | permeability relative to DDO-6101 and GA [1]: improved the permeability |
| CC(C)=CCC12OC(C)(C)C3CC(C=C4C(=O)c5c(OC(=O)N6CC=CC6)cccc5OC431)C2=O (stereo not drawn) [Compound 8h] | 6700 ± 180 | 1750 ± 280 | 3150 ± 220 | 6800 ± 700 | 1100 ± 160 | 8450 ± 200 | 20 (≈ 9.51 µg/mL) |  |
| CC(C)=CCC12OC(C)(C)C3CC(C=C4C(=O)c5c(OC(=O)N6CCN(C)CC6)cccc5OC431)C2=O (stereo not drawn) [Compound 8m] |  |  |  |  |  |  |  | IC50 (A549/cisplatin; [8]): 380 ± 70 nM; IC50 (HepG2; [9]): 1360 ± 710 nM; IC50 (HCT116; [10]): 8150 ± 700 nM; IC50 (MDA-MB-231; [11]): 760 ± 90 nM; IC50 (A549/taxol; read-out: IC50 A549/taxol, MTT): 1100 ± 50 nM; IC50 (A549; [12]): 9970 ± 2460 nM; S, water solubility (Water solubility by HPLC; [13]): 640 µM |
| CC(C)=CCC12OC(C)(C)C3CC(C=C4C(=O)c5c(OCC(=O)O)cccc5OC431)C2=O (stereo not drawn) [Compound 5] |  | > 10000 | > 10000 | > 10000 |  |  | 30 (≈ 13.2 µg/mL) |  |
| CC(C)=CCC12OC(C)(C)C3CC(C=C4C(=O)c5c(cccc5OS(C)(=O)=O)OC431)C2=O (stereo not drawn) [Compound 2] |  | 1410 ± 60 | 2120 ± 140 | 2000 ± 70 |  |  | 20 (≈ 9.17 µg/mL) |  |
| CC(C)=CCC12OC(C)(C)C3CC(C=C4C(=O)c5c(OC(=O)N6CCSC6)cccc5OC431)C2=O (stereo not drawn) [Compound 8i] | 1800 ± 100 | 1610 ± 180 | 1080 ± 20 | 1000 ± 100 | 820 ± 80 | 3380 ± 20 | 20 (≈ 9.91 µg/mL) | permeability relative to DDO-6101 and GA [1]: improved the permeability |
| COc1cccc2c1C(=O)c1c(O)c3c(c(O)c1C2=O)C[C@@](O)(C(=O)CO)C[C@@H]3O[C@H]1C[C@H](N)[C@H](O)[C@H](C)O1 [Doxorubicin, reference compound] | 190 ± 20 | 280 ± 10 | 400 ± 40 | 490 ± 50 | 240 ± 20 | 170 ± 20 |  |  |
| CCN(C)C(=O)Oc1cccc2c1C(=O)C1=CC3CC4C(C)(C)OC(CC=C(C)C)(C3=O)C14O2 (stereo not drawn) [Compound 8c] |  |  |  |  |  |  |  | IC50 (A549/cisplatin; [14]): 1480 ± 140 nM; IC50 (HepG2; [15]): 2560 ± 190 nM; IC50 (HCT116; [10]): 2750 ± 140 nM; IC50 (MDA-MB-231; [11]): 250 ± 120 nM; IC50 (A549/taxol; [16]): 660 ± 160 nM; IC50 (A549; [12]): 3050 ± 580 nM; solubility (Water solubility by HPLC; [17]): 30 µM (≈ 14 µg/mL) |
| CC(C)=CCC12OC(C)(C)C3CC(C=C4C(=O)c5c(OC(=O)N(C)C)cccc5OC431)C2=O (stereo not drawn) [Compound 8a] |  |  |  |  |  |  |  | IC50 (A549/cisplatin; [14]): 1100 ± 100 nM; IC50 (HepG2; [15]): 1730 ± 430 nM; IC50 (HCT116; [10]): 2320 ± 210 nM; IC50 (MDA-MB-231; [11]): 170 ± 40 nM; IC50 (A549/taxol; [16]): 650 ± 80 nM; IC50 (A549; [12]): 3090 ± 140 nM; solubility (Water solubility by HPLC; [17]): 60 µM (≈ 27.1 µg/mL) |
| CC(C)=CCC12OC(C)(C)C3CC(C=C4C(=O)c5c(OC(=O)N6CCOCC6)cccc5OC431)C2=O (stereo not drawn) [Compound 8d] | 1480 ± 250 | 2310 ± 180 | 710 ± 40 | 580 ± 40 | 530 ± 80 | 9810 ± 170 | 40 (≈ 19.7 µg/mL) | permeability relative to DDO-6101 and GA [1]: improved the permeability |
| CC(C(=O)O)c1cccc(C(=O)c2ccccc2)c1 (stereo not drawn) [Ketoprofen, reference compound] |  |  |  |  |  |  |  | permeability coefficient (Pe) [1]: 4.5 ×10⁻⁶ cm/s |
| CC(C)=CCC12OC(C)(C)C3CC(C=C4C(=O)c5c(OC(=O)N(C(C)C)C(C)C)cccc5OC431)C2=O (stereo not drawn) [Compound 8k] | 2000 ± 470 | 4760 ± 220 | 4490 ± 770 | 9100 ± 120 | 6720 ± 530 | 8960 ± 900 | 30 (≈ 15.2 µg/mL) |  |
| CCOC(=O)COc1cccc2c1C(=O)C1=CC3CC4C(C)(C)OC(CC=C(C)C)(C3=O)C14O2 (stereo not drawn) [Compound 4] |  | 12700 ± 970 | 8130 ± 730 | 5420 ± 570 |  |  | 10 (≈ 4.67 µg/mL) |  |
| CC(C)=CCC12OC(C)(C)C3CC(C=C4C(=O)c5c(OC(=O)N6CCC(N7CCCCC7)CC6)cccc5OC431)C2=O (stereo not drawn) [Compound 8l] |  |  |  |  |  |  |  | IC50 (A549/cisplatin; [14]): 980 ± 130 nM; permeability relative to DDO-6101 and GA [1]: improved the permeability; IC50 (HepG2; [9]): 340 ± 270 nM; IC50 (HCT116; [18]): 2490 ± 330 nM; IC50 (MDA-MB-231; [11]): 880 ± 50 nM; fold higher activity against the resistant A549 cell line than A549 (A549/taxol; Taxol-resistant and cisplatin-resistant A549 versus A549): 10–15 fold; IC50 (A549/taxol; read-out: IC50 A549/taxol, MTT): 610 ± 40 nM; IC50 (A549; [12]): 10000 ± 2100 nM; S, water solubility (Water solubility by HPLC; [13]): 80 µM |
| CC(C)=CCC12OC(C)(C)C3CC(C=C4C(=O)c5c(OC(=O)N(CCO)CCO)cccc5OC431)C2=O (stereo not drawn) [Compound 8j] | 3780 ± 110 | 5210 ± 10 | 4140 ± 50 | 6200 ± 110 | 4250 ± 700 | 10240 ± 100 | 60 (≈ 30.7 µg/mL) |  |
| CC(C)=CCC12OC(C)(C)C3CC(C=C4C(=O)c5c(OC(=O)N6CCN(C)CC6)cccc5OC431)C2=O (stereo not drawn) [Compound 8o] |  |  |  |  |  |  |  | IC50 (A549/cisplatin; [8]): 1140 ± 140 nM; IC50 (HepG2; [9]): 2800 ± 210 nM; IC50 (HCT116; [18]): 9820 ± 680 nM; IC50 (MDA-MB-231; read-out: IC50 MDA-MB-231, MTT, 72 h): 660 ± 70 nM; IC50 (A549/taxol; read-out: IC50 A549/taxol, MTT): 510 ± 50 nM; IC50 (A549; read-out: IC50 A549, MTT, 72 h): 14900 ± 3600 nM; S, water solubility (Water solubility by HPLC; [13]): >40000 µM |
| CC(C)=CCC12OC(C)(C)C3CC(C=C4C(=O)c5c(OC(=O)N6CCCC6)cccc5OC431)C2=O (stereo not drawn) [Compound 8e] | 5680 ± 150 | 990 ± 10 | 1060 ± 90 | 4400 ± 1500 | 12400 ± 290 | 8630 ± 190 | 40 (≈ 19.1 µg/mL) |  |
| CC(C)NCC(O)COc1cccc2ccccc12 (stereo not drawn) [propranolol, reference compound] |  |  |  |  |  |  |  | permeability coefficient (Pe) [1]: 112.8 ×10⁻⁶ cm/s |
